According to patent US11109593B2, “Isoxazolin-5-one derivative and herbicide containing same as active ingredient” (HOKKO CHEMICAL INDUSTRY CO., LTD., priority 2017, dated 2021):

Assays:
Assay type in all cases: in vivo
[1] = system: broad leaf weeds (Lindernia pyxidaria and Monochoria vaginalis); assay: Test Example 2: herbicidal effect test by treatment during growing period in paddy rice cultivation (seven days after seeding); conditions: 120 g/10a active ingredient, assessed 14 days after treatment, dry weight vs untreated area; for pest or weed control at 1200 g/ha: 336 h
Summary of the method: (§1)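 Herbicidal rate (%) = {1 − treated/untreated mean plant dry weight} × 100, assessed in duplicate 14 days post-treatment. Emulsion formulations were diluted in water and dropped onto flooded (about 3 cm) paddy pots 7 days after seeding, giving 120 g a.i. per 10 ares. Plants were grown in a glass greenhouse.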

[2] = system: Scirpus juncoides; assay: as above; conditions: 120 g/10a active ingredient, assessed 14 days after treatment, dry weight vs untreated area
Summary of the method: as §1

[3] = system: Echinochloa crus-galli; assay: as above; conditions: 120 g/10a active ingredient, assessed 14 days after treatment, dry weight vs untreated area
Summary of the method: as §1

[4] = system: broad leaf weeds (Lindernia pyxidaria and Monochoria vaginalis); assay: Test Example 1: herbicidal effect test by treatment of rice paddy soil (immediately after seeding); conditions: 120 g/10a active ingredient, dry weight vs untreated area, 14 days after treatment; for pest or weed control at 1200 g/ha: 336 h
Summary of the method: (§2)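 Application occurs immediately after seeding, with diluted emulsion added to paddy water (about 3 cm deep) over puddled, fertilized soil at 120 g active ingredient per 10 ares. Herbicidal rate is calculated from mean dry weight against untreated controls 14 days later.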

[5] = system: Scirpus juncoides; assay: as above; conditions: 120 g/10a active ingredient, dry weight vs untreated area, 14 days after treatment
Summary of the method: as §2

[6] = system: Echinochloa crus-galli; assay: as above; conditions: 120 g/10a active ingredient, dry weight vs untreated area, 14 days after treatment
Summary of the method: as §2

[7] = system: Amaranthus viridis; assay: Test Example 3: herbicidal effect test by treatment of dry field farming soil (one day after seeding); conditions: 120 g/10a active ingredient, evaluated 14 days after treatment
Summary of the method: (§3)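 Herbicidal rate (%) equals 1 minus treated/untreated mean plant dry weight, times 100, taken 14 days after treatment in duplicate pots. Emulsion diluted in water was applied at 100 L per 10 ares (120 g a.i. per 10 ares) one day after sowing 20 seeds per species into the top 1 cm of alluvial soil.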

[8] = system: Chenopodium album; assay: as above; conditions: 120 g/10a active ingredient, evaluated 14 days after treatment
Summary of the method: as §3

[9] = system: Echinochloa crus-galli; assay: as above; conditions: 120 g/10a active ingredient, evaluated 14 days after treatment
Summary of the method: as §3

[10] = system: southern crabgrass; assay: as above; conditions: 120 g/10a active ingredient, evaluated 14 days after treatment
Summary of the method: as §3

[11] = system: Amaranthus viridis; assay: Test Example 4: herbicidal effect test by treatment of leave and stem in dry field farming (seven days after seeding); conditions: 120 g/10a active ingredient, emulsion sprayed seven days after seeding, evaluated 14 days after treatment
Summary of the method: (§4)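 Weeds were seeded at 20 seeds per species into the top 1 cm of alluvial upland soil in pots, then sprayed 7 days after seeding with water-diluted emulsifiable concentrate at 100 L/10 a, giving 120 g active ingredient/10 a. Duplicate pots; herbicidal rate (%) was 14 days post-treatment, from dry weight versus untreated.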

[12] = system: Chenopodium album; assay: as above; conditions: 120 g/10a active ingredient, emulsion sprayed seven days after seeding, evaluated 14 days after treatment
Summary of the method: as §4

[13] = system: Echinochloa crus-galli; assay: as above; conditions: 120 g/10a active ingredient, emulsion sprayed seven days after seeding, evaluated 14 days after treatment
Summary of the method: as §4

[14] = system: southern crabgrass; assay: as above; conditions: 120 g/10a active ingredient, emulsion sprayed seven days after seeding, evaluated 14 days after treatment
Summary of the method: as §4

| Compound | Herbicidal rate (%) Lindernia pyxidaria ([1]; Lindernia pyxidaria) [%] | Herbicidal rate (%) Monochoria vaginalis ([1]; Monochoria vaginalis) [%] | Herbicidal rate (%) Scirpus juncoides [2] [%] | Herbicidal rate (%) Echinochloa crus-galli [3] [%] | Herbicidal rate (%) Lindernia pyxidaria ([4]; Lindernia pyxidaria) [%] | Herbicidal rate (%) Monochoria vaginalis ([4]; Monochoria vaginalis) [%] | Herbicidal rate (%) Scirpus juncoides [5] [%] | Herbicidal rate (%) Echinochloa crus-galli [6] [%] | herbicidal rate, Amaranthus viridis [7] [%] | herbicidal rate, Chenopodium album [8] [%] | herbicidal rate, Echinochloa crus-galli [9] [%] | herbicidal rate, southern crabgrass [10] [%] | herbicidal effect (herbicidal rate), Amaranthus viridis [11] [%] | herbicidal effect (herbicidal rate), Chenopodium album [12] [%] | herbicidal effect (herbicidal rate), Echinochloa crus-galli [13] [%] | herbicidal effect (herbicidal rate), southern crabgrass [14] [%] | also measured |
| --- | --- | --- | --- | --- | --- | --- | --- | --- | --- | --- | --- | --- | --- | --- | --- | --- | --- |
| Cc1c(Cc2ccccc2N(C(=O)Oc2ccccc2)S(=O)(=O)C(F)(F)F)c(=O)on1C(C)c1ccccc1 (stereo not shown) [Compound 1-766] | 90 | 90 | 90 | 90 | 90 | 90 | 90 | 90 | 90 | 90 | 90 | 90 | 40 | 40 | 90 | 90 | – |
| CCOC(=O)N(c1ccccc1Cc1c(C)n(CCSC)oc1=O)S(=O)(=O)C(F)(F)F [Compound 1-620] | 90 | 90 | 90 | 90 | 90 | 90 | 90 | 90 | 90 | 90 | 90 | 90 | 40 | 40 | 90 | 90 | – |
| CC(=O)N(c1ccccc1Cc1c(C)n(CC(C)C)oc1=O)S(=O)(=O)C(F)(F)F [Compound 1-297, N-[2-[(2-isobutyl-3-methyl-5-oxoisoxazol-4-yl)methyl]phenyl]-N-(trifluoromethylsulfonyl)acetamide] | – | – | – | – | – | – | – | – | – | – | – | – | – | – | – | – | pest or weed control at 1200 g/ha ([1]; Lindernia pyxidaria, read-out: herbicidal rate (%) Lindernia pyxidaria): 100%; pest or weed control at 1200 g/ha ([1]; Monochoria vaginalis, read-out: herbicidal rate (%) Monochoria vaginalis): 90%; pest or weed control at 1200 g/ha ([2]; Schoenoplectiella juncoides, 336 h, read-out: herbicidal rate (%) Scirpus juncoides): 90%; pest or weed control at 1200 g/ha ([3]; Echinochloa crus-galli, 336 h, read-out: herbicidal rate (%) Echinochloa crus-galli): 100%; pest or weed control at 1200 g/ha ([4]; Monochoria vaginalis, read-out: Herbicidal rate (%) Monochoria vaginalis): 100%; pest or weed control at 1200 g/ha ([4]; in Lindernia, Lindernia pyxidaria, read-out: Herbicidal rate (%) Lindernia pyxidaria): 100%; pest or weed control at 1200 g/ha ([5]; in Schoenoplectiella juncoides, 336 h, read-out: Herbicidal rate (%) Scirpus juncoides): 100%; pest or weed control at 1200 g/ha ([6]; in Echinochloa crus-galli, 336 h, read-out: Herbicidal rate (%) Echinochloa crus-galli): 100%; pest or weed control at 1200 g/ha ([7]; Amaranthus viridis, 336 h, read-out: herbicidal rate, Amaranthus viridis): 90%; pest or weed control at 1200 g/ha ([8]; Chenopodium album, 336 h, read-out: herbicidal rate, Chenopodium album): 90%; pest or weed control at 1200 g/ha ([9]; Echinochloa crus-galli, 336 h, read-out: herbicidal rate, Echinochloa crus-galli): 100%; pest or weed control at 1200 g/ha ([10]; Digitaria ciliaris, 336 h, read-out: herbicidal rate, southern crabgrass): 90%; pest or weed control at 1200 g/ha ([11]; Amaranthus viridis, 336 h, read-out: herbicidal effect (herbicidal rate), Amaranthus viridis): 40%; pest or weed control at 1200 g/ha ([12]; Chenopodium album, 336 h, read-out: herbicidal effect (herbicidal rate), Chenopodium album): 40%; pest or weed control at 1200 g/ha ([13]; Echinochloa crus-galli, 336 h, read-out: herbicidal effect (herbicidal rate), Echinochloa crus-galli): 80%; pest or weed control at 1200 g/ha ([14]; Digitaria ciliaris, 336 h, read-out: herbicidal effect (herbicidal rate), southern crabgrass): 60% |
| Cc1c(Cc2ccccc2N(C(=O)OCC(C)C)S(=O)(=O)C(F)(F)F)c(=O)on1C(C)c1ccccc1 (stereo not shown) [Compound 1-678] | 90 | 90 | 90 | 90 | 90 | 90 | 90 | 90 | 90 | 90 | 90 | 90 | 40 | 40 | 90 | 90 | – |
